According to patent US20180311342A1, “IMMUNOSTIMULATING AGENT” (AJINOMOTO CO., INC., priority 2017, published 2018):

Assays:
Format in all cases: in vivo, BALB/c mice
[1] = test system: anti-OVA-specific IgE antibody; assay: Allergy inducing activity test: anti-OVA-specific IgE antibody in serum of OVA-immunized mice (DS mouse IgE ELISA (OVA) kit)
Description: (§1) 8-Week-old female BALB/c mice were divided into groups (N=6), and each group was primarily immunized by dorsal-subcutaneous administration of (1) ovalbumin (OVA) (5 μg) dissolved in saline as an antigen (OVA single administration group), (2) OVA 5 μg and Addavax™ (mixed with saline at 1:1) dissolved in saline (Addavax™ administration group) as positive control adjuvant, (3) OVA 5 μg and SZ137 0.256 μmol dissolved or dispersed in 5% α-cyclodextrin (hereinafter to be simply referred to as αCD)-added saline (SZ137 administration group), (4) OVA (5 μg) and SZ138 (0.256 μmol) dissolved or dispersed in 5% αCD-added saline (SZ138 administration group), (5) OVA (5 μg) and SZ142 (0.256 μmol) dissolved or dispersed in 5% αCD-added saline (SZ142 administration group), (6) OVA (5 μg) and SZ144 (0.256 μmol) dissolved or dispersed in 5% αCD-added saline (SZ144 administration group), (7) OVA (5 μg) and SZ145 (0.256 μmol) dissolved or dispersed in 5% αCD-added saline (SZ145 administration group), (8) OVA (5 μg) and SZ146 (0.256 μmol) dissolved or dispersed in 5% αCD-added saline (SZ146 administration group), (9) OVA (5 μg) and SZ147 (0.256 μmol) dissolved or dispersed in 5% αCD-added saline (SZ147 administration group), (10) OVA (5 μg) and SZ148 (0.256 μmol) dissolved or dispersed in 5% αCD-added saline (SZ148 administration group), each per mouse. Two week later, the secondary immunization was carried out by dorsal-subcutaneous administration of solutions or dispersions similar to those of the above-mentioned (1)-(10) again. Two weeks from the secondary immunization, the whole blood was extracted under anesthesia, and the obtained serum sample was measured for anti-OVA-specific IgG1 subclass antibody, anti-OVA-specific IgG2a subclass antibody, and anti-OVA-specific IgE antibody.
The measurement method of the anti-OVA-specific IgE antibody in Experimental Example 1 and the following Experimental Examples 2-5, 8-10 is as follows.
DS mouse IgE ELISA (OVA) kit manufactured by DS Pharma Biomedical Co., Ltd. was used. The protocol is briefly shown below.
The serum sample and a standard reagent for drawing an analytical curve are diluted with a buffer and, after stirring, left standing at room temperature for 10 min. The sample and the standard solution are added to a plate bound with an IgE capture antibody in advance and, after stirring, the mixture is left standing at room temperature for 60 min. The mixture is washed three times with wash, HRP-labeled OVA is added, and the mixture is left standing at room temperature for 30 min. The mixture is washed three times with wash, a substrate solution is added, and the mixture is left standing in dark at room temperature for 30 min. A reaction quenching liquid is added, the mixture is stirred, and the absorbance (OD Value=450 nm) is immediately measured.
The standard used is one attached to the kit, the standard curve is drawn from the measured OD Value, and the concentration is calculated. […]

[2] = test system: anti-OVA-specific IgG2a subclass antibody; assay: Adjuvant activity test: anti-OVA-specific IgG2a subclass antibody in serum of OVA-immunized mice (ELISA); conditions: after secondary immunization, serum 2 weeks later; OVA 5 μg + compound 0.256 μmol in 5% αCD-added saline (Addavax mixed with saline at 1:1), dorsal-subcutaneous; compared to OVA single administration group
Description: as §1
(§2) The measurement method of the anti-OVA-specific IgG1 subclass antibody and anti-OVA-specific IgG2a subclass antibody in Experimental Example 1 and the following Experimental Examples 2-10 is as follows.
(§3) To a 96 well plate was added 5 μg/ml OVA at 100 µl/well, and the mixture was incubated at 4° C. overnight. After incubation, the mixture was washed three times with 200 μl of PBS-T (PBS (phosphate buffered saline)+0.05% (v/v) Tween 20) per well, and blocked with 100 μl of 5% FCS (fetal calf serum)/PBS solution per well at room temperature for 1-2 hr. Thereafter, the mixture was washed three times with PBS-T (200 μl/well), a diluted serum sample (100 l/well) or the same amount of 5% FCS/PBS solution as a control was added, and the mixture was incubated at 37° C. for 1 hr. To calculate concentration of the antibody, the standard of an anti-OVA-specific IgG1 subclass antibody diluted with 2% FCS/PBS solution was added at 100 ng/ml, 50 ng/ml, 25 ng/ml, 12.5 ng/ml, 6.25 ng/ml, 3.125 ng/ml, 1.56 ng/ml, 0.781 ng/ml, 0.391 ng/ml, 0.195 ng/ml, 0.098 ng/ml, 0 ng/ml, per 1 well. When an anti-OVA-specific IgG2a subclass antibody was measured, the standard of an anti-OVA-specific IgG2a subclass antibody was added at 50 ng/ml, 25 ng/ml, 12.5 ng/ml, 6.25 ng/ml, 3.125 ng/ml, 1.56 ng/ml, 0.781 ng/ml, 0.391 ng/ml, 0.195 ng/ml, 0.098 ng/ml, 0.049 ng/ml, 0 ng/ml, per 1 well. Thereafter, similar to the samples, the mixture was washed five times with PBS-T (200 μl/well), a diluted biotinylated anti-mouse IgG1 antibody and IgG2a antibody were added (100 μl/well), and the mixture was incubated at 37° C. for 45 min. Thereafter, the mixture was washed five times with PBS-T (200 μl/well), a diluted anti-biotin-HRP antibody was added (100 μl/well), and the mixture was incubated at 37° C. for another 30 min. Thereafter, the mixture was washed five times with PBS-T (200 μl/well), TMB substrate solution was added (100 μl/well), and the mixture was incubated at room temperature for 10-15 min. Thereafter, a reaction quenching liquid (2N sulfuric acid solution) was added (50 l/well) to discontinue a color developing reaction, and the absorbance (OD Value=450 nm) was measured by a microplate reader. […]

[3] = test system: anti-OVA-specific IgG1 subclass antibody; assay: Adjuvant activity test: anti-OVA-specific IgG1 subclass antibody in serum of OVA-immunized mice (ELISA); conditions: after secondary immunization, serum 2 weeks later; OVA 5 μg + compound 0.256 μmol in 5% αCD-added saline (Addavax mixed with saline at 1:1), dorsal-subcutaneous; compared to OVA single administration group
Description: as §1, §2, §3

SMILES: CCCCCCCCCCCCCCCCCC(=O)N[C@@H](CCCNC(=N)N)C(=O)NCCCCCCCCCCCC.Cl [SZ137, N-[(1S)-1-(dodecylcarbamoyl)-4-guanidino-butyl]octadecanamide hydrochloride]
- anti-OVA-specific IgE antibody production ([1]; after secondary immunization, OVA 5 μg + compound 0.256 μmol in 5% αCD-added saline (Addavax mixed with saline at 1:1), dorsal-subcutaneous, compared to OVA single administration group): an increase in the anti-OVA-specific IgE antibody production was not observed
- allergy inducing activity as compared to Addavax ([1]; conclusion from IgE after secondary immunization, compound in 5% αCD-added saline): may have a lower allergy inducing activity
- anti-OVA-specific IgG2a subclass antibody production [2]: significantly increased
- anti-OVA-specific IgG1 subclass antibody production [3]: significantly increased
